Results as given in BindingDB's records for PubMed 30125720 (Southern Medical University, 2018).
pIC50: −log10 of the molar value.

assay: Inhibition of TGF-beta (unknown origin)

| pIC50 | Structure (SMILES) |
| --- | --- |
| 6.01 | O=c1[nH]cc(-c2cccc(CO)c2)cc1-c1nc2cc(N3CCNCC3)ccc2[nH]1 |
| 9.47 | CC(=O)Nc1cc(Nc2nc(-c3ccc(F)c(C)n3)nc3[nH]cnc23)ccn1 |
| 8.37 | CCc1cnn(-c2cccc(C)n2)c1-c1cc2cnccc2s1 [US9090625, 4] |
